How the values were obtained:
Format in all cases: cell-based
[1] = molecular target: proteins of U3A human fibrosarcoma cells (4462 proteins detected) (Homo sapiens, UniProt P28290); conditions: protein SSFA2; U3A, 10 μM, 2 h
[2] = molecular target: proteins of U3A human fibrosarcoma cells (4462 proteins detected) (Homo sapiens, UniProt Q9HCJ0); conditions: protein TNRC6C, U3A cells
[3] = molecular target: proteins of U3A human fibrosarcoma cells (4462 proteins detected) (Homo sapiens, UniProt O00330); conditions: protein PDHX; U3A cells
Sequence of proteins of U3A human fibrosarcoma cells (4462 proteins detected) (Homo sapiens, UniProt O00330) (O00330 54-501): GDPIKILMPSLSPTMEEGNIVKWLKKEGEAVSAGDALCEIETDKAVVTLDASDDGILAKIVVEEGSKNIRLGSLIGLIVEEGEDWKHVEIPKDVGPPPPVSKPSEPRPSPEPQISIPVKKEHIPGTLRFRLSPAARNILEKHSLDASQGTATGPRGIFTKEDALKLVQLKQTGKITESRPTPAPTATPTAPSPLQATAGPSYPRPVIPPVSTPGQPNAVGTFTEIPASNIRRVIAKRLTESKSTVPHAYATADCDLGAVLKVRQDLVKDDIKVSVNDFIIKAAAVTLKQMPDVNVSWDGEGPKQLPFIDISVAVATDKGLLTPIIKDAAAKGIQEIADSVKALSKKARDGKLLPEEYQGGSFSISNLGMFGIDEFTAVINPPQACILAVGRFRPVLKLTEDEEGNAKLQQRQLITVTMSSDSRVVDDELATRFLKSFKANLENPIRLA

[4] = molecular target: proteins of U3A human fibrosarcoma cells (4462 proteins detected) (Homo sapiens, UniProt Q9Y2A7); conditions: protein NCKAP1; U3A cells
[5] = molecular target: proteins of U3A human fibrosarcoma cells (4462 proteins detected) (Homo sapiens, UniProt Q9BSJ8); conditions: protein ESYT1; U3A cells
[6] = molecular target: proteins of U3A human fibrosarcoma cells (4462 proteins detected) (Homo sapiens, UniProt Q15382); conditions: protein RHEB; U3A, 10 μM, 2 h
[7] = molecular target: proteins of U3A human fibrosarcoma cells (4462 proteins detected) (Homo sapiens, UniProt P20839); conditions: protein IMPDH1, U3A cells
[8] = molecular target: proteins of U3A human fibrosarcoma cells (4462 proteins detected) (Homo sapiens, UniProt Q13541); conditions: protein EIF4EBP1, U3A cells
[9] = molecular target: proteins of U3A human fibrosarcoma cells (4462 proteins detected) (Homo sapiens, UniProt Q9NWH9); conditions: protein SLTM; soluble abundance after heat, U3A cells
[10] = molecular target: proteins of U3A human fibrosarcoma cells (4462 proteins detected) (Homo sapiens, UniProt P35790); conditions: protein CHKA; U3A, 10 μM, 2 h
[11] = molecular target: proteins of U3A human fibrosarcoma cells (4462 proteins detected) (Homo sapiens, UniProt P61289); conditions: protein PSME3; U3A cells
[12] = molecular target: proteins of U3A human fibrosarcoma cells (4462 proteins detected) (Homo sapiens, UniProt Q9P000); conditions: protein COMMD9; U3A cells
Sequence of proteins of U3A human fibrosarcoma cells (4462 proteins detected) (Homo sapiens, UniProt Q9P000) (Q9P000 whole entry): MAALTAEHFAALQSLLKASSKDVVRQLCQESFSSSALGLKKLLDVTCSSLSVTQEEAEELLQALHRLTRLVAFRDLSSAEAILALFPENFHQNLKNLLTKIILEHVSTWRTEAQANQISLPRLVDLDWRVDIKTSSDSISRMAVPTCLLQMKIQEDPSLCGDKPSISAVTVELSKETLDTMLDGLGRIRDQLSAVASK

[13] = molecular target: proteins of U3A human fibrosarcoma cells (4462 proteins detected) (Homo sapiens, UniProt Q9NRW3); conditions: protein APOBEC3C; U3A cells
[14] = molecular target: proteins of U3A human fibrosarcoma cells (4462 proteins detected) (Homo sapiens, UniProt P21283); conditions: protein ATP6V1C1; soluble abundance after heat, U3A cells
[15] = molecular target: proteins of U3A human fibrosarcoma cells (4462 proteins detected) (Homo sapiens, UniProt P49915); conditions: protein GMPS; soluble abundance after heat, U3A cells
Sequence of proteins of U3A human fibrosarcoma cells (4462 proteins detected) (Homo sapiens, UniProt P49915) (P49915 whole entry): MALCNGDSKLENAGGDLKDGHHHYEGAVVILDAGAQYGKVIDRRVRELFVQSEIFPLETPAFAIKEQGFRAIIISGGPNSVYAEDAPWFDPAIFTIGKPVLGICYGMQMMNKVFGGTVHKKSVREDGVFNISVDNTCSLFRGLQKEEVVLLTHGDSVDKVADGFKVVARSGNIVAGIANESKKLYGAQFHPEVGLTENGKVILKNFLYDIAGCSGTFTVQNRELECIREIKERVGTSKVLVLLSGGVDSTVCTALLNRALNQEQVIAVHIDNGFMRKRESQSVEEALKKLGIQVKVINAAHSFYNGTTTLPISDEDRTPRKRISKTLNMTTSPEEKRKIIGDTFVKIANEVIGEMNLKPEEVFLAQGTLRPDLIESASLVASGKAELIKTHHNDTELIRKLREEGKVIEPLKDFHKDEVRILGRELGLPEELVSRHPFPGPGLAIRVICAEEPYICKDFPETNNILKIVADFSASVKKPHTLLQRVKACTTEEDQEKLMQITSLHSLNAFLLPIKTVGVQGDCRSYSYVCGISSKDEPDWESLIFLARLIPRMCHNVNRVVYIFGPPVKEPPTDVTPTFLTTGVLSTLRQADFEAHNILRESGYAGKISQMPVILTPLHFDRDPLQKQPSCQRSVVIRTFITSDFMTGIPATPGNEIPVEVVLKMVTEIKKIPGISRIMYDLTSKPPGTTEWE

[16] = molecular target: proteins of U3A human fibrosarcoma cells (4462 proteins detected) (Homo sapiens, UniProt Q9Y6A4); conditions: protein CFAP20; soluble abundance after heat, U3A cells
[17] = molecular target: proteins of U3A human fibrosarcoma cells (4462 proteins detected) (Homo sapiens, UniProt O14828); conditions: protein SCAMP3; soluble abundance after heat, U3A cells
[18] = molecular target: proteins of U3A human fibrosarcoma cells (4462 proteins detected) (Homo sapiens, UniProt Q5JSH3); conditions: protein WDR44, U3A cells
[19] = molecular target: proteins of U3A human fibrosarcoma cells (4462 proteins detected) (Homo sapiens, UniProt Q9Y237); conditions: protein PIN4, U3A cells
[20] = molecular target: proteins of U3A human fibrosarcoma cells (4462 proteins detected) (Homo sapiens, UniProt Q9BYM8); conditions: protein RBCK1; U3A, 10 μM, 2 h
[21] = molecular target: proteins of U3A human fibrosarcoma cells (4462 proteins detected) (Homo sapiens, UniProt Q6P2Q9); conditions: protein PRPF8; soluble abundance after heat, U3A cells
[22] = molecular target: proteins of U3A human fibrosarcoma cells (4462 proteins detected) (Homo sapiens, UniProt P36507); conditions: protein MAP2K2; U3A cells
[23] = molecular target: proteins of U3A human fibrosarcoma cells (4462 proteins detected) (Homo sapiens, UniProt Q96P48); conditions: protein ARAP1; soluble abundance after heat, U3A cells
[24] = molecular target: proteins of U3A human fibrosarcoma cells (4462 proteins detected) (Homo sapiens, UniProt Q16401); conditions: protein PSMD5; soluble abundance after heat, U3A cells
[25] = molecular target: proteins of U3A human fibrosarcoma cells (4462 proteins detected) (Homo sapiens, UniProt P62906); conditions: protein RPL10A; U3A cells
[26] = molecular target: proteins of U3A human fibrosarcoma cells (4462 proteins detected) (Homo sapiens, UniProt P08758); conditions: protein ANXA5, U3A cells
[27] = molecular target: proteins of U3A human fibrosarcoma cells (4462 proteins detected) (Homo sapiens, UniProt P49458); conditions: protein SRP9, U3A cells
[28] = molecular target: proteins of U3A human fibrosarcoma cells (4462 proteins detected) (Homo sapiens, UniProt Q9BUJ2); conditions: protein HNRNPUL1, U3A cells
[29] = molecular target: proteins of U3A human fibrosarcoma cells (4462 proteins detected) (Homo sapiens, UniProt O60749); conditions: protein SNX2; U3A cells
Sequence of proteins of U3A human fibrosarcoma cells (4462 proteins detected) (Homo sapiens, UniProt O60749) (O60749 whole entry): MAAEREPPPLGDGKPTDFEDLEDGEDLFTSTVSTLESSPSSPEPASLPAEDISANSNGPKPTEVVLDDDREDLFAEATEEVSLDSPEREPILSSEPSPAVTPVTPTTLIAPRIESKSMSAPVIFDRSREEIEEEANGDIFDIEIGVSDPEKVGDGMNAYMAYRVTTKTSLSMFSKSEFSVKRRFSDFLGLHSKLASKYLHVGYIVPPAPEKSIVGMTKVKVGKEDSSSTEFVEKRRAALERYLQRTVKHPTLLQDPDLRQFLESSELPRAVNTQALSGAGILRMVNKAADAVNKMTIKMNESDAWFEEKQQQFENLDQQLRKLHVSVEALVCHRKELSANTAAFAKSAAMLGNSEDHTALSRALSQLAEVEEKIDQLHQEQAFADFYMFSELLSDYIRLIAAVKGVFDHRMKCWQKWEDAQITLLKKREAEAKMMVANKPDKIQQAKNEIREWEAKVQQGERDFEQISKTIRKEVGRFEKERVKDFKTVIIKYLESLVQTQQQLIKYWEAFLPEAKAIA

Sequence of proteins of U3A human fibrosarcoma cells (4462 proteins detected) (Homo sapiens, UniProt P28290) (P28290 whole entry): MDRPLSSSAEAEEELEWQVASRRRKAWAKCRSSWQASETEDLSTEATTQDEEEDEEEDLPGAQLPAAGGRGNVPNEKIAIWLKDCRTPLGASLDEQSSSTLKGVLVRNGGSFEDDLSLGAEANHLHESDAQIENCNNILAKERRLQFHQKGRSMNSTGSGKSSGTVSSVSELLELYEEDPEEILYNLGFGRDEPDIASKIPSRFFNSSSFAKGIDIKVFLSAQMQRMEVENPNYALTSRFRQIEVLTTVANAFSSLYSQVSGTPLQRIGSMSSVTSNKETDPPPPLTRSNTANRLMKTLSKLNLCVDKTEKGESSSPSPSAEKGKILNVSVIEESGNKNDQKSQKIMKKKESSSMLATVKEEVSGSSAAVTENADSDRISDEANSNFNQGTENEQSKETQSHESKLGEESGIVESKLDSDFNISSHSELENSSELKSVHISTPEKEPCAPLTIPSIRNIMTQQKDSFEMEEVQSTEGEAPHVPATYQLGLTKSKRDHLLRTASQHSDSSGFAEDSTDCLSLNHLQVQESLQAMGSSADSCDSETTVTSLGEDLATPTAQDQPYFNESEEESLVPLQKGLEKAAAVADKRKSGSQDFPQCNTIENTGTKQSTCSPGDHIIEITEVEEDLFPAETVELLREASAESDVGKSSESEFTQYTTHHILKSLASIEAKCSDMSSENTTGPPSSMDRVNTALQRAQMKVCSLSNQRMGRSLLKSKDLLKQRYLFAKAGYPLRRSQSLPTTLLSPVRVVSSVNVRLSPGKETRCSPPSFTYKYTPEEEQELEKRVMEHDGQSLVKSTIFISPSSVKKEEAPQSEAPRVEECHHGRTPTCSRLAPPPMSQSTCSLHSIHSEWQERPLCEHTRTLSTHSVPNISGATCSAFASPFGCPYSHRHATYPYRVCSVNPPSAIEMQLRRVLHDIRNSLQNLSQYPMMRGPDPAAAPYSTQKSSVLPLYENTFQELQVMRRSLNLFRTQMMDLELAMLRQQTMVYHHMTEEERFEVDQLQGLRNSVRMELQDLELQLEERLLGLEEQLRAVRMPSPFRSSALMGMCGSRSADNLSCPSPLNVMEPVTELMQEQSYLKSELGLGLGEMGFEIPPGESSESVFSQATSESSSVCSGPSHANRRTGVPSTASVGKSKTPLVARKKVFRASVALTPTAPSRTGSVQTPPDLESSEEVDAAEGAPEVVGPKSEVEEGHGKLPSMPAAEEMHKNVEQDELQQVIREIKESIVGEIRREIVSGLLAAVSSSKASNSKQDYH
Sequence of proteins of U3A human fibrosarcoma cells (4462 proteins detected) (Homo sapiens, UniProt Q9HCJ0) (Q9HCJ0 whole entry): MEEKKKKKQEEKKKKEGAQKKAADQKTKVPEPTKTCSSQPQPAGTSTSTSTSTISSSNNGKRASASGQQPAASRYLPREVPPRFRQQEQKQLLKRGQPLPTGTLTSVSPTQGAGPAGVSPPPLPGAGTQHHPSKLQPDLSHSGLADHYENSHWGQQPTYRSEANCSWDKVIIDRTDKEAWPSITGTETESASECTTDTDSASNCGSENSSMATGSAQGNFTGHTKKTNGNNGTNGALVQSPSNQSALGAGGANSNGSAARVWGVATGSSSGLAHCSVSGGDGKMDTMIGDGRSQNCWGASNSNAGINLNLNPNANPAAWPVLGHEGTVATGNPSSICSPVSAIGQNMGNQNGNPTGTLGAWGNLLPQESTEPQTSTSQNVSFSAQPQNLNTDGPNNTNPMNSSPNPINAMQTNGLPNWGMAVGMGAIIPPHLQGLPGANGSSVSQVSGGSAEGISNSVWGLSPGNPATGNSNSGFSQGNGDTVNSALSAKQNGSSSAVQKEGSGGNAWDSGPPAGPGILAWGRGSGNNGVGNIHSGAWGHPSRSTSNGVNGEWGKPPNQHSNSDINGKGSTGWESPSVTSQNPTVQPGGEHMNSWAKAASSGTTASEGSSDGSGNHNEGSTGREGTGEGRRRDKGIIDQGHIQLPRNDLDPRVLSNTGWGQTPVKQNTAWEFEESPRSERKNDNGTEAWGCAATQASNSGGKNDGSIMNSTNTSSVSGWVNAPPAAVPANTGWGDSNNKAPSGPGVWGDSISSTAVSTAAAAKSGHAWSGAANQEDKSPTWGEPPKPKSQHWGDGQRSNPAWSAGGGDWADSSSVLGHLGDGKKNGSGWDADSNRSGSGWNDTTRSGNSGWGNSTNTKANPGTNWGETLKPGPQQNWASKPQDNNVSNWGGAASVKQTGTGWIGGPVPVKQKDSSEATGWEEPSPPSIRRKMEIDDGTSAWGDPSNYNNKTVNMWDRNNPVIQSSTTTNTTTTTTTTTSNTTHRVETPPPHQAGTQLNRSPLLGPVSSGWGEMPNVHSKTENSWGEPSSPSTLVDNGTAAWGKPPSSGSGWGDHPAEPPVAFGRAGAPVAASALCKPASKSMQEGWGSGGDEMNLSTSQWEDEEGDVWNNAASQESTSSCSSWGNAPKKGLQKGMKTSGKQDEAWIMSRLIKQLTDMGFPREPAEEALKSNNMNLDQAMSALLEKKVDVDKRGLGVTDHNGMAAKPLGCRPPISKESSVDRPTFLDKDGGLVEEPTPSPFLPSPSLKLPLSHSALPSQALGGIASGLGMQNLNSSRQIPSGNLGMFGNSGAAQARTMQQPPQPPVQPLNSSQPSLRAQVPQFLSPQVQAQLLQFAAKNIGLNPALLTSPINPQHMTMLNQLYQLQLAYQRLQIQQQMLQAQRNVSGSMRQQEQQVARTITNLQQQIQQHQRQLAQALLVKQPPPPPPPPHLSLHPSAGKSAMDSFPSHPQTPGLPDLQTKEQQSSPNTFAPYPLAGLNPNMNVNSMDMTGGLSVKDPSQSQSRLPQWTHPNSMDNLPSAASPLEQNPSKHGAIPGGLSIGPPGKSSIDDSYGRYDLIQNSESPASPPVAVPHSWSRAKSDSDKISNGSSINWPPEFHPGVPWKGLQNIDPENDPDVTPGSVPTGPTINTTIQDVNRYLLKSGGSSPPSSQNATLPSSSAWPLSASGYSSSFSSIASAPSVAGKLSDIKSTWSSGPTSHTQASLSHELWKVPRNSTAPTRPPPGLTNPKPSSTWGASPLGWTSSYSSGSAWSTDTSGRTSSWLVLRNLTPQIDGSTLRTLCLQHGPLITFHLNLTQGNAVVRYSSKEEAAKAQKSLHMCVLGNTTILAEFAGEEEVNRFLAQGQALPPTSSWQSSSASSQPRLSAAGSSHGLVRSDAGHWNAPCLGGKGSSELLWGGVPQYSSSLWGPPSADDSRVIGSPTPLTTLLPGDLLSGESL

SMILES: CCc1nc(N)nc(N)c1-c1ccc(Cl)cc1 [pyrimethamine]
- Log2 (PYR/DMSO), SSFA2 [1]: -0.15
- Log2 (PYR/DMSO) [2]: -0.04
- Log2 (PYR/DMSO) [3]: 0.19
- Log2 (PYR/DMSO) [4]: 0.15
- Log2 (PYR/DMSO) [5]: 0.20
- Log2 (PYR/DMSO), RHEB [6]: -0.45
- Log2 (PYR/DMSO) [7]: -0.04
- Log2 (PYR/DMSO) [8]: -0.04
- Log2 (PYR/DMSO) [9]: 0.15
- Log2 (PYR/DMSO), CHKA [10]: 0.24
- Log2 (PYR/DMSO) [11]: 0.17
- Log2 (PYR/DMSO) [12]: 0.16
- Log2 (PYR/DMSO) [13]: 0.22
- Log2 (PYR/DMSO) [14]: 0.13
- Log2 (PYR/DMSO) [15]: 0.14
- Log2 (PYR/DMSO) [16]: 0.14
- Log2 (PYR/DMSO) [17]: 0.14
- Log2 (PYR/DMSO) [18]: -0.05
- Log2 (PYR/DMSO) [19]: -0.05
- Log2 (PYR/DMSO), RBCK1 [20]: -0.16
- Log2 (PYR/DMSO) [21]: 0.14
- Log2 (PYR/DMSO) [22]: 0.23
- Log2 (PYR/DMSO) [23]: 0.14
- Log2 (PYR/DMSO) [24]: 0.14
- Log2 (PYR/DMSO) [25]: 0.17
- Log2 (PYR/DMSO) [26]: -0.04
- Log2 (PYR/DMSO) [27]: -0.05
- Log2 (PYR/DMSO) [28]: -0.04
- Log2 (PYR/DMSO) [29]: 0.17
